From ChEMBL document CHEMBL1201862, “PubChem BioAssay data set” (2004)
Blank lines part the entries; values can stand above or below the compound they belong to. The source made the active and inactive calls.

Tests used:
[1] = viability inhibitors of stage V gametocytes – luminescence, dose response (AID 1117278); type: functional, cell-based;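 also: gametocytes exposed to compound for 24 hours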
[2] = viability loss in human Jurkat cells – cell-based, luminescence, cytotoxicity control for P. falciparum gametocyte viability project, dose response (AID 1117277); type: functional;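 also: potency reflects loss of cellular ATP meaning fewer viable cells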
Cytochrome P450 2C9 = Cytochrome P450 2C9 (Homo sapiens, UniProt P11712)
Cytochrome P450 3A4 = Cytochrome P450 3A4 (Homo sapiens, UniProt P08684);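 also: CYP3A4 tested as one member of a cytochrome P450 panel screen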
Leucine aminopeptidase = target: T1, Leucine aminopeptidase (Plasmodium falciparum 3D7, UniProt Q8IL11); test: P. falciparum M17LAP inhibitors, primary screen, biochemical, fluorogenic H-Leu-NHMec substrate, 1536-well (AID 1619); type: functional
T1 sequence (Q8IL11 whole entry): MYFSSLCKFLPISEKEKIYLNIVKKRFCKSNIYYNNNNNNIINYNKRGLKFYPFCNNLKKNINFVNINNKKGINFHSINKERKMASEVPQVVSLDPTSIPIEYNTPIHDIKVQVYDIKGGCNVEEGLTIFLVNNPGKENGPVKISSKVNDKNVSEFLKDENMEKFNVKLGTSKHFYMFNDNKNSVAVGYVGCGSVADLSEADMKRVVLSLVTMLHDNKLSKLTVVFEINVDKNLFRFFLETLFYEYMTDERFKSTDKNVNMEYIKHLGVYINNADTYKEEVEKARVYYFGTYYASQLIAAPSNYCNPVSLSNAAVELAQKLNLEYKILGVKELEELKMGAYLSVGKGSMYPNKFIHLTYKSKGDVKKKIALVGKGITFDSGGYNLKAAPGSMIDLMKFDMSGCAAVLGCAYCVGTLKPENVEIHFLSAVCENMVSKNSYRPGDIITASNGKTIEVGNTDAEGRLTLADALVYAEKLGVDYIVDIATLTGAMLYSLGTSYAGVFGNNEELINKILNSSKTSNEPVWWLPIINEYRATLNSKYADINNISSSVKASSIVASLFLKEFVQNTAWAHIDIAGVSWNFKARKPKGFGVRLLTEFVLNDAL

Cytochrome P450 1A2 = target: T2, Cytochrome P450 1A2 (Homo sapiens, UniProt P05177);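 also: PubChem cytochrome P450 panel assay, CYP1A2 panel member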
T2 sequence (P05177 whole entry): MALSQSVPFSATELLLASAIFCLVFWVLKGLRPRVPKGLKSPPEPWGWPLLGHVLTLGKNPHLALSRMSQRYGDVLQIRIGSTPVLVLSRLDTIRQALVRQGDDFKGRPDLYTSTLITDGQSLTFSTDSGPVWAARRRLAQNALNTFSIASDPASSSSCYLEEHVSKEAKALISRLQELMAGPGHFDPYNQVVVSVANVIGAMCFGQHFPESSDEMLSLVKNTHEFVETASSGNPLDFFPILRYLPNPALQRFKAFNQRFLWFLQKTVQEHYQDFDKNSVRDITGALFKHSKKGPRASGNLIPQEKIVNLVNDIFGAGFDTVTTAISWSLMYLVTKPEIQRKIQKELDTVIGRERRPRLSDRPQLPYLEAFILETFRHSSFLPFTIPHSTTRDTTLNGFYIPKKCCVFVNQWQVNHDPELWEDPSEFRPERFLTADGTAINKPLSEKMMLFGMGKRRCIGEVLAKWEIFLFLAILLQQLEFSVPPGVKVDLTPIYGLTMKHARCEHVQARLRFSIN

[3] = HIV-1 Vif–A3G interaction blockers – biochemical, TR-FRET, GST-Vif 1-94, biotin-A3G peptide, dose response retest, primary screen (AID 1117319); type: functional;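 also: TR-FRET signal of purified GST-Vif binding a biotinylated A3G peptide; inhibitors lower the FRET signal by blocking Vif and A3G binding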
Estrogen receptor = target: T3, Estrogen receptor (Homo sapiens, UniProt P03372);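 also: potency for inhibiting coactivator peptide recruitment to the receptor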
T3 sequence (P03372 whole entry): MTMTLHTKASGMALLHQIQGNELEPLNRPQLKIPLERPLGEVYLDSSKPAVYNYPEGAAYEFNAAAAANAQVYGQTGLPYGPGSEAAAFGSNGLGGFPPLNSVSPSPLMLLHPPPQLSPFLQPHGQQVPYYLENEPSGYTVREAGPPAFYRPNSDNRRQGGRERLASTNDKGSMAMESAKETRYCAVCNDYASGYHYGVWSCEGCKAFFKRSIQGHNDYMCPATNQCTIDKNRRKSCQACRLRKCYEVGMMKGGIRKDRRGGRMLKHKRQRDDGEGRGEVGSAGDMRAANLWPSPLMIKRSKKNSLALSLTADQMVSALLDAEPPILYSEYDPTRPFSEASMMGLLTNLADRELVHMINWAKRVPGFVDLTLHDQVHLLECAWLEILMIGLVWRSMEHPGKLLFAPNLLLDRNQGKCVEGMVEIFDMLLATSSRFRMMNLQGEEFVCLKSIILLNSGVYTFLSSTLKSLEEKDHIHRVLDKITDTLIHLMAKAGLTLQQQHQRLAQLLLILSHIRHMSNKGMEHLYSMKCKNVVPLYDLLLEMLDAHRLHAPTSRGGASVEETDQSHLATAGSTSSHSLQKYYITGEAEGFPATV

HEK293 = test: EBV LMP1 TES2 canonical NF-kB signalling blockers – cell-based, HEK293, luciferase, cherry-pick, dose response (AID 588343); type: functional; settings: Homo sapiens
Protein Tat = target: T4, Protein Tat (Human immunodeficiency virus type 1 group M subtype B (isolate HXB2)(HIV-1), UniProt P04608); type: functional;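 also: tat binding to TAR RNA read out by fluorescence polarization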
T4 sequence (P04608 whole entry): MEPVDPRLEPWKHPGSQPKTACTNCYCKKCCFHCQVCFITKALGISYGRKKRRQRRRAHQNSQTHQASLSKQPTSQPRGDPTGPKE

[4] = target: Induced myeloid leukemia cell differentiation protein Mcl-1 (Homo sapiens, UniProt Q07820); type: functional
HeLa = test: viability loss in HeLa cells – cell-based, 24 h, cherry-picked samples, cytotoxicity control, dose response (AID 504726); type: functional; settings: Homo sapiens;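 also: potency for cytotoxicity as loss of luminescence signal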
[5] = target: Endoplasmic reticulum aminopeptidase 1 (Homo sapiens, UniProt Q9NZ08); test: inhibition of human ERAP1 enzyme activity – biochemical, cherry-pick, set 2, plate reader, dose response (AID 743314)
[6] = target: T5, DNA repair and recombination protein RAD54-like (Homo sapiens, UniProt Q92698); test: RAD54 Holliday junction migration blockers – biochemical, fluorescence, cherry-picked samples, dose series, confirmation (AID 651657); type: functional
T5 sequence (Q92698 whole entry): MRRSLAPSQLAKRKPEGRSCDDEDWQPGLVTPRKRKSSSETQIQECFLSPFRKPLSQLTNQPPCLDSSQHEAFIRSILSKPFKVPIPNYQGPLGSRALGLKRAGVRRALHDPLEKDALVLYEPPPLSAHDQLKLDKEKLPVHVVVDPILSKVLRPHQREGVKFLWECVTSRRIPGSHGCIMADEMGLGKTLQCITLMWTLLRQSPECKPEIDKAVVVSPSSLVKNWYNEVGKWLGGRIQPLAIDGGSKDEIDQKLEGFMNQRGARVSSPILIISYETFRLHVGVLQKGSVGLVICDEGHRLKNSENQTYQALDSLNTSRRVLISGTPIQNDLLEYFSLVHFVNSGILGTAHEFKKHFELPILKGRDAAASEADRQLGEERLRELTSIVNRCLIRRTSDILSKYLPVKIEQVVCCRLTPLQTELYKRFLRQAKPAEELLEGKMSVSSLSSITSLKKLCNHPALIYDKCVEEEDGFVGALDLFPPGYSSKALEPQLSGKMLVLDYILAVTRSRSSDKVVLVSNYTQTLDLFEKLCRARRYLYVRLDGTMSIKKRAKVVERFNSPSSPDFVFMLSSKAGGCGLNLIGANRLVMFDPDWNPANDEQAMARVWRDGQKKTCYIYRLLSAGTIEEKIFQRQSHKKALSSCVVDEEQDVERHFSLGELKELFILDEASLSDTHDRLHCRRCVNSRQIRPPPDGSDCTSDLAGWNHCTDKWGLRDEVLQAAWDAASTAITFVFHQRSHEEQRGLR

[7] = viability loss in THP-1 monocytes – THP-1 cells, cytotoxicity control for Vif-APOBEC3G degradation inhibitor project, dose response (AID 1117359); type: functional; settings: THP-1
[8] = fluconazole-exposed Candida albicans growth modulators – fluorescence, retest, confirmation (AID 2467); type: functional, cell-based
[9] = NIH-3T3 fibroblast cytotoxicity, dose response, cytotoxicity control, cell-based, fluorescence, Alamar Blue, secondary assay (AID 2327); type: functional;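 also: NIH-3T3 mouse fibroblasts cultured with fluconazole at 8 µg/mL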
[10] = target: ATP-dependent molecular chaperone HSP82 (Candida albicans (strain WO-1) (Yeast), UniProt C4YTQ8); test: steroid-induced GRE reporter decrease in yeast – S. cerevisiae, luminescence, Hsp90 inhibitor project, dose response (AID 2400); type: functional, cell-based;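 also: beta-galactosidase luminescence from glucocorticoid response element reporter as proxy for Hsp90 function; inhibitor potency where signal loss means Hsp90 inhibition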
[11] = target: T6, Serine/threonine-protein phosphatase (Candida dubliniensis (strain CD36 / CBS 7987 / NCPF 3949 / NRRLY-17841) (Yeast), UniProt B9W6M3); test: blockers of CaCl2-induced CDRE-lacZ signaling – S. cerevisiae, luminescence, secondary, dose response (AID 2388); type: functional, cell-based;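 also: yeast reporter cells carrying a calcineurin-responsive lacZ construct stimulated with calcium chloride; luminescent beta-galactosidase reporter signal in whole cells rather than isolated phosphatase activity; potency for inhibition where a drop in reporter signal means calcineurin blockade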
T6 sequence (B9W6M3 whole entry): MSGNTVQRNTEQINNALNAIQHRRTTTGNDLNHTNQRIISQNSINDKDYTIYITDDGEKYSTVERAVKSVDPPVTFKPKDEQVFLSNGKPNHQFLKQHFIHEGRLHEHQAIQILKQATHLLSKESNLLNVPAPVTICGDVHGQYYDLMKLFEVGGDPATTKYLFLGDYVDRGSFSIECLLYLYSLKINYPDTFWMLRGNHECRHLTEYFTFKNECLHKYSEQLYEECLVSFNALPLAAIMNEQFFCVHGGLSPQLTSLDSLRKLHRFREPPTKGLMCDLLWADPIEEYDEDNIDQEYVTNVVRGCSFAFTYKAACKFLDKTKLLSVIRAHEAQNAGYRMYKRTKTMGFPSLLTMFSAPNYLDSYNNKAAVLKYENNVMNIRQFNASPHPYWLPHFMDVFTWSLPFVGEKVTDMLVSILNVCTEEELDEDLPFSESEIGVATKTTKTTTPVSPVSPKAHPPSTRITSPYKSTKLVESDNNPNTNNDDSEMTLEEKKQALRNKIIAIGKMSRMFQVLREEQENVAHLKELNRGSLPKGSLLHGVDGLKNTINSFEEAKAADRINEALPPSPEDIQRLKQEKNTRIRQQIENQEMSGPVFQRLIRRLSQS

Endoplasmic reticulum aminopeptidase 1, sequence (Q9NZ08 whole entry): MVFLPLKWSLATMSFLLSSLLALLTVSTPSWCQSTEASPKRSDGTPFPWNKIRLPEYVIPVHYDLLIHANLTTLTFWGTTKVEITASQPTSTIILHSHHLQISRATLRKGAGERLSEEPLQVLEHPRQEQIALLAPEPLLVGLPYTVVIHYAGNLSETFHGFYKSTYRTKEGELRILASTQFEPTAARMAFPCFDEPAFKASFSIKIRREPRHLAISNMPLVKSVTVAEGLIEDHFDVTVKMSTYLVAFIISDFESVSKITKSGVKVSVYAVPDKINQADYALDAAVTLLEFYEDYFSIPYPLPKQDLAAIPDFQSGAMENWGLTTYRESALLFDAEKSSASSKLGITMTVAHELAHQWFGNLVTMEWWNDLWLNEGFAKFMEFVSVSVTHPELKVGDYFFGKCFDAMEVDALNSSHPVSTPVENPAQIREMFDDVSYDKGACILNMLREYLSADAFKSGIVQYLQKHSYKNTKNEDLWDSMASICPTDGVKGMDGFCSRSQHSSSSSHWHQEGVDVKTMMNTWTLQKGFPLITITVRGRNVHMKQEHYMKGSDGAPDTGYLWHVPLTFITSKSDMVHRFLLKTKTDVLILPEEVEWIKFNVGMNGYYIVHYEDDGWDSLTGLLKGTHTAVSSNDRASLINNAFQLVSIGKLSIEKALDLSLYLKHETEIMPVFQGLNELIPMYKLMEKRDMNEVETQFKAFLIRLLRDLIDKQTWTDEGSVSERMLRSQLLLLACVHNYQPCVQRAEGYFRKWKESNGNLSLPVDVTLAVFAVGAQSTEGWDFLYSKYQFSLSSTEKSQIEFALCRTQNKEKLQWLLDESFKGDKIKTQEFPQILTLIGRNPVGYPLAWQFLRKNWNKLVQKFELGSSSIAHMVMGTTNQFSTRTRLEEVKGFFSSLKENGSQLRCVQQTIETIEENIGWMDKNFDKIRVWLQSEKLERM
Cytochrome P450 2C9, sequence (P11712 whole entry): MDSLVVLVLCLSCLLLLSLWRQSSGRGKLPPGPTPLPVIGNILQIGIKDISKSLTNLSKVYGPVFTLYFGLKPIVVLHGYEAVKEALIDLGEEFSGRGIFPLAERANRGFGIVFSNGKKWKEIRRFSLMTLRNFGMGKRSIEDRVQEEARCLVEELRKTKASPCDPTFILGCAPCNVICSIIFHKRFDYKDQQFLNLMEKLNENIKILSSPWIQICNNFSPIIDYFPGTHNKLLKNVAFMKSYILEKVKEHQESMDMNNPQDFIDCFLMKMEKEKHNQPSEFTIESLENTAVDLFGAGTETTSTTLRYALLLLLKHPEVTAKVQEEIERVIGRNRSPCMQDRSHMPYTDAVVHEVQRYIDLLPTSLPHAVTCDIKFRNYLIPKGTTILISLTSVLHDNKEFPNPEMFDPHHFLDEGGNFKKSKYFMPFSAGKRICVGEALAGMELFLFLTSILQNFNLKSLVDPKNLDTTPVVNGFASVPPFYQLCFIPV
Cytochrome P450 3A4, sequence (P08684 whole entry): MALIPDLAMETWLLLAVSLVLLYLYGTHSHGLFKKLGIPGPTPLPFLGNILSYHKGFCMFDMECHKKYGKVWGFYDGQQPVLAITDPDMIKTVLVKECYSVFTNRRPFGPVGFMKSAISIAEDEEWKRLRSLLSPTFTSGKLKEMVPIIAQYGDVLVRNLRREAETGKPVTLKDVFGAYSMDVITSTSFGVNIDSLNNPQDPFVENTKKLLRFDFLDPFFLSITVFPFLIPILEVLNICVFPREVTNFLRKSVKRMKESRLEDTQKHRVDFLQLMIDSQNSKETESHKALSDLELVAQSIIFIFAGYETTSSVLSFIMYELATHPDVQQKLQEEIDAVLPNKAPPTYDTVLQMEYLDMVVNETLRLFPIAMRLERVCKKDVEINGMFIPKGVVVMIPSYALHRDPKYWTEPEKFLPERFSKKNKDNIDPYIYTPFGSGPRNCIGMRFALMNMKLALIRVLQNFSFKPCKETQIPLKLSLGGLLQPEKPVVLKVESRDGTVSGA
Induced myeloid leukemia cell differentiation protein Mcl-1, sequence (Q07820 whole entry): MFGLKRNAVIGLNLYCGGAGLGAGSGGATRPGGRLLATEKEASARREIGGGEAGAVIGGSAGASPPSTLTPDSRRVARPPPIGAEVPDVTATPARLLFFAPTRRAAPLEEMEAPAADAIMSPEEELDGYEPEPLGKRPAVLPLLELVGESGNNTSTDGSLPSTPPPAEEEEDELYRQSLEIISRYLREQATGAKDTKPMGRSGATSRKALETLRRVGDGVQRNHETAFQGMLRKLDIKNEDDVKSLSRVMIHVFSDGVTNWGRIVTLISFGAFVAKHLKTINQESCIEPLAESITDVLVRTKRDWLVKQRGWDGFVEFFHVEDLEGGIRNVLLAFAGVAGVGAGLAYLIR
ATP-dependent molecular chaperone HSP82, sequence (C4YTQ8 whole entry): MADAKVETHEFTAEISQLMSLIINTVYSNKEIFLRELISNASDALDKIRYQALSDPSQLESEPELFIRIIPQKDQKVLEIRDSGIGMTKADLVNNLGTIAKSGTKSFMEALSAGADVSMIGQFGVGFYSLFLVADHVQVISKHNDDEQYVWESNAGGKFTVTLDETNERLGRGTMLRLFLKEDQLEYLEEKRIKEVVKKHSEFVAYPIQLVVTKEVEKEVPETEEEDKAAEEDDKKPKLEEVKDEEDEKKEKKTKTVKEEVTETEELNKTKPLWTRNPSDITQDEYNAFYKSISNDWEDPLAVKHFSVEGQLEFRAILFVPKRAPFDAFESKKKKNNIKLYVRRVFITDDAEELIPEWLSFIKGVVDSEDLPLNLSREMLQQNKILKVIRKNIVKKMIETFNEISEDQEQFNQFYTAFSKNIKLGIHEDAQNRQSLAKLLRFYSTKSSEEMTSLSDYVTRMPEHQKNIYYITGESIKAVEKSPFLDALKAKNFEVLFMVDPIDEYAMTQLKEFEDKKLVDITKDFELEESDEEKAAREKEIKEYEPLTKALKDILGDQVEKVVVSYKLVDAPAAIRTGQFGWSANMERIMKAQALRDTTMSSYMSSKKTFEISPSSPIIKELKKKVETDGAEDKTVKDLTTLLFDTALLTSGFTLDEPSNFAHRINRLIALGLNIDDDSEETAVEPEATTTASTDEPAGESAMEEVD

AC50 (Cytochrome P450 2C9): 3.16 µM (inconclusive)
AC50 (Cytochrome P450 3A4): 3.98 µM (inconclusive)
IC50 (Leucine aminopeptidase): 38.8 µM (active)
AC50 (Cytochrome P450 1A2): 0.00316 µM (inconclusive)
Compound: O=C(O)c1ccccc1-c1ccccc1C(=O)Nc1ccc2c(c1)[nH]c(=O)c1ccccc12

IC50 [4]: 4.61 µM (active)
IC50 (Estrogen receptor): 13.9 µM (active)
Compound: Cc1ccc(/C=c2\sc3nc(-c4ccco4)nn3c2=O)o1

AC50 [5]: 8.8 µM (active)
Compound: Cc1cc(=O)oc2cc(NS(=O)(=O)c3ccc(F)cc3)ccc12

AC50 [5]: 7.87 µM (active)
Compound: CCCc1cc(=O)oc2c(CN3CCN(C)CC3)c(O)ccc12

IC50 (Leucine aminopeptidase): 31.8 µM (active)
Compound: Cc1ccc(OCc2ccc(C(=O)O)o2)c([N+](=O)[O-])c1

IC50 (Estrogen receptor): 37.9 µM (not active)
Compound: CCCn1nc(C(=O)OCC(=O)c2ccc3c(c2)NC(=O)CO3)c2ccccc2c1=O

IC50 [3]: > 100 µM (active)
IC50 (Protein Tat): > 100 µM (active)
Compound: S=C(Nc1ccc2c(c1)OCCO2)Nc1ccc2c(c1)OCO2
CC50 [7]: > 40 µM (active)

The next lines start with the compound.

Compound: COCCn1cnc2c1c(=O)n(CC(=O)Nc1cc(C)on1)c(=O)n2Cc1ccccc1
IC50 [1]: > 109 µM (inactive)
IC50 [2]: > 83.3 µM (inactive)

Compound: CCOc1ccc(S(=O)(=O)N2CCCC2)cc1
IC50 [1]: > 109 µM (inactive)
IC50 [2]: > 83.3 µM (inactive)

Compound: COc1ccc(CN2C(=O)c3ccccc3C2C(=O)NCc2cccnc2)c(OC)c1 (stereo not given)
IC50 [3]: > 100 µM (active)

Compound: O=C(Nc1ccc2c(c1)nc1n2CCSC1)c1ccco1
IC50 (Estrogen receptor): 14.5 µM (active)
AC50 (HEK293): 3.52 µM (active)

Compound: COCCCNC(=O)c1cccn2c(=O)c3cc4ccccc4cc3nc12
IC50 (Protein Tat): > 100 µM (active)

Compound: Cc1cc(S(=O)(=O)NC2CCN(Cc3ccccc3)CC2)c(C)cc1Cl
AC50 (HeLa): 52.3 µM (active)

Compound: COc1ccc(N(CC(=O)NCc2ccccc2C)S(=O)(=O)c2ccc(C)cc2)cc1OC
IC50 [3]: > 100 µM (active)

Compound: Cc1c(N)cc(S(=O)(=O)O)cc1NC(=O)c1cccc([N+](=O)[O-])c1
AC50 (HeLa): 56.4 µM (active)

Compound: CCCn1c(O)nnc1SCC(=O)c1cc(C)ccc1C
IC50 [3]: > 100 µM (active)

Compound: Cc1ccc(OCC(=O)O/N=C(\N)Cc2ccc([N+](=O)[O-])cc2)cc1C
AC50 (HeLa): > 350 µM (inactive)

Compound: COc1cccc(OCCNc2ccc([N+](=O)[O-])cn2)c1
AC50 (HeLa): 49.3 µM (active)

Compound: CC(=O)N1[C@@H]2Cn3c(ccc(/C=C/c4ccccc4)c3=O)[C@H]1[C@@H](C(=O)NCC1CC1)[C@@H]2CO
AC50 [5]: 8.13 µM (active)

Compound: O=C1c2cccc3cccc(c23)C(=O)N1CCCn1ccnc1
AC50 [6]: 20.2 µM (active)

Compound: Cc1ccc(S(=O)(=O)N2CCN(C(=O)CCC(=O)NCCc3ccc(F)cc3)CC2)cc1
IC50 [1]: > 109 µM (inactive)
IC50 [2]: > 83.3 µM (inactive)

Compound: O=C(N/N=C/c1cc([N+](=O)[O-])ccc1O)c1ccc(COc2ccc3c(c2)CCC3)o1
EC50 [8]: 1.19 µM (active)
EC50 [9]: 11.6 µM (active)
EC50 [10]: 28.3 µM (active)
EC50 [11]: > 180 µM (inactive)
